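Results reflect a 48-hour exposure of cells in 96-well plates to compound at five concentrations. GI50 marks 50% less growth.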 Activity calls are given as the source filed them. Rule as the data show it: active = GI50 up to about 1.1 µM and inactive = higher.
How the values were obtained:
Test in all cases: DTP human tumour cell line panel, 48 h
DMS-114 = test system: DMS-114
HCC 2998 = test system: HCC 2998
TK-10 = test system: TK-10
SNB-75 = test system: SNB-75
CAKI-1 = test system: CAKI-1
SF-539 = test system: SF-539
SF-295 = test system: SF-295
SK-OV-3 = test system: SK-OV-3
DMS-273 = test system: DMS-273
K562 = test system: K562
OVCAR-4 = test system: OVCAR-4
SK-MEL-2 = test system: SK-MEL-2
COLO 205 = test system: COLO 205
HCT-116 = test system: HCT-116
MOLT-4 = test system: MOLT-4
SNB-19 = test system: SNB-19
NCI-H522 = test system: NCI-H522
HL-60 = test system: HL-60

Row | SMILES | GI50 (DMS-114) | GI50 (HCC 2998) | GI50 (TK-10) | GI50 (SNB-75) | GI50 (CAKI-1) | GI50 (SF-539) | GI50 (SF-295) | GI50 (SK-OV-3) | GI50 (DMS-273) | GI50 (K562) | GI50 (OVCAR-4) | GI50 (SK-MEL-2) | GI50 (COLO 205) | GI50 (HCT-116) | GI50 (MOLT-4) | GI50 (SNB-19) | GI50 (NCI-H522) | GI50 (HL-60)
1 | N#CC1C(=O)NC(=O)C1=O (stereo not given) | > 100 µM (inactive) | > 100 µM (inactive) | > 100 µM (inactive) | > 100 µM (inactive) | > 100 µM (inactive) | > 100 µM (inactive) | > 100 µM (inactive) | > 100 µM (inactive) | > 100 µM (inactive) | > 100 µM (inactive) | > 100 µM (inactive) | > 100 µM (inactive) | > 100 µM (inactive) | > 100 µM (inactive) | > 100 µM (inactive) | > 100 µM (inactive) | > 100 µM (inactive) | –
2 | O/N=C/c1ccc(O)c(O)c1 | 14.7 µM (inactive) | > 100 µM (inactive) | > 100 µM (inactive) | > 100 µM (inactive) | 67.8 µM (inactive) | > 100 µM (inactive) | > 100 µM (inactive) | > 100 µM (inactive) | 62.5 µM (inactive) | 55.8 µM (inactive) | 77.3 µM (inactive) | > 100 µM (inactive) | 55.8 µM (inactive) | > 100 µM (inactive) | 20.5 µM (inactive) | > 100 µM (inactive) | 15.2 µM (inactive) | 12.8 µM (inactive)
3 | Cn1cc2ccccc2c1-c1nc(F)nc(Oc2ccc3c(c2)CC[C@@H]2C3CC[C@@]3(C)C2CC[C@@H]3O)n1 (stereo not given in full) | 3.66 µM (inactive) | 18.3 µM (inactive) | 13.7 µM (inactive) | 16.7 µM (inactive) | 11.6 µM (inactive) | 12.8 µM (inactive) | 22.6 µM (inactive) | 19.3 µM (inactive) | 11.6 µM (inactive) | 4.73 µM (inactive) | 7.43 µM (inactive) | 4.2 µM (inactive) | 21.8 µM (inactive) | 11.7 µM (inactive) | 4.07 µM (inactive) | 16.6 µM (inactive) | 3.4 µM (inactive) | 3.81 µM (inactive)
4 | O=C1CCC2CCOc3ccc(O)c1c32 (stereo not given) | > 100 µM (inactive) | > 100 µM (inactive) | > 100 µM (inactive) | > 100 µM (inactive) | – | > 100 µM (inactive) | > 100 µM (inactive) | > 100 µM (inactive) | > 100 µM (inactive) | > 100 µM (inactive) | > 100 µM (inactive) | > 100 µM (inactive) | > 100 µM (inactive) | > 100 µM (inactive) | > 100 µM (inactive) | > 100 µM (inactive) | > 100 µM (inactive) | > 100 µM (inactive)
5 | O=C(O)CC1CC=C[C@H]2c3cc4c(cc3C(=O)NC12)OCO4 (stereo not given in full) | > 75 µM (inactive) | > 75 µM (inactive) | > 75 µM (inactive) | > 75 µM (inactive) | – | > 75 µM (inactive) | > 75 µM (inactive) | > 75 µM (inactive) | > 75 µM (inactive) | > 75 µM (inactive) | – | – | > 75 µM (inactive) | > 75 µM (inactive) | > 75 µM (inactive) | > 75 µM (inactive) | > 75 µM (inactive) | > 75 µM (inactive)
6 | CCCN(CCC)C(=O)c1nc(N)nc(-c2ccc(OC)cc2)c1-c1ccc(OC)cc1 | 84.9 µM (inactive) | – | > 100 µM (inactive) | 37.5 µM (inactive) | > 100 µM (inactive) | > 100 µM (inactive) | > 100 µM (inactive) | > 100 µM (inactive) | > 100 µM (inactive) | 84.1 µM (inactive) | 47.9 µM (inactive) | > 100 µM (inactive) | > 100 µM (inactive) | > 100 µM (inactive) | 11.2 µM (inactive) | > 100 µM (inactive) | 98.9 µM (inactive) | 73.8 µM (inactive)
7 | C(/COc1cccnc1)=N\NC1=NCCN1 | > 100 µM (inactive) | > 100 µM (inactive) | > 100 µM (inactive) | > 100 µM (inactive) | > 100 µM (inactive) | > 100 µM (inactive) | > 100 µM (inactive) | > 100 µM (inactive) | > 100 µM (inactive) | > 100 µM (inactive) | > 100 µM (inactive) | > 100 µM (inactive) | > 100 µM (inactive) | > 100 µM (inactive) | > 100 µM (inactive) | > 100 µM (inactive) | > 100 µM (inactive) | > 100 µM (inactive)
8 | CCc1cc(C)cc2[n+]1CC=C2.[O-][Cl+3]([O-])([O-])[O-] | 10 µM (inactive) | 43.6 µM (inactive) | 44.1 µM (inactive) | 22.9 µM (inactive) | 28.2 µM (inactive) | 26.7 µM (inactive) | 31.6 µM (inactive) | – | 0.593 µM (active) | – | 34.1 µM (inactive) | 15.6 µM (inactive) | 21.9 µM (inactive) | 18.2 µM (inactive) | – | 28.6 µM (inactive) | 13.1 µM (inactive) | 0.125 µM (active)

Source: ChEMBL document CHEMBL1201862, “PubChem BioAssay data set” (2004)
